*1 amine or outer side, *2 acyl side, *3 side chain or, on linkers, in order; H or OH if unused. Where a SMILES comes first, the peptide text is derived from it. Side-chain parts run from the residue outwards. [ ]: non-standard residue; d: D form. The star is where a group is joined. C18 diacid = O=C(O)CCCCCCCCCCCCCCCCC(=O)*; γGlu = O=C(O)[C@H](CCC(=O)[*:2])N[*:1]; Desaminohistidyl = O=C(CCc1c[nH]cn1)*; AEEA = NCCOCCOCC(=O)O; Aib = CC(C)(N)C(=O)O
These compounds were tested against T1, human GLP-1 receptor (Homo sapiens, UniProt P43220) (assay: Assay (I)(a): GLP-1 receptor potency, CRE luciferase reporter gene assay in BHK cells). Settings: BHK cells expressing human GLP-1 receptor, read-out: EC50 GLP-1R.
T1 construct: expressed in transfected cells; host or cells: membranes of BHK cells, parent line BHKTS13, clone FCW467-12A
T1 sequence (P43220 24-463): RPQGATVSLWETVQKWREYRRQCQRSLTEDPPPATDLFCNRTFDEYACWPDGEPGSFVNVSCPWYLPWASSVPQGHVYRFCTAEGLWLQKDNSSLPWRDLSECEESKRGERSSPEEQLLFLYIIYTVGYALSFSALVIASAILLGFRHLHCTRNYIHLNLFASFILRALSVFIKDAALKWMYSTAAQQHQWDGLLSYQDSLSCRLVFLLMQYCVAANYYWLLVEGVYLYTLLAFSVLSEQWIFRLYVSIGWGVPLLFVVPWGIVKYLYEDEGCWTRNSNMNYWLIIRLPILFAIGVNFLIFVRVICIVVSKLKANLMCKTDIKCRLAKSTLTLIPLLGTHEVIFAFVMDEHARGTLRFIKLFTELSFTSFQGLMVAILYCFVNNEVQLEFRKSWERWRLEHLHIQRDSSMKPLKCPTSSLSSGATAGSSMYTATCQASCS
Type: cell-based
How it was run: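 BHK cells (clone FCW467-12A/KZ10-1), 5×10EE3/well, exposed 3 h at 37° C to compound at 1×10EE-13 to 1×10EE-6 M final in medium with 2% ovalbumin and 0.2% Pluronic F-68. Luciferase luminescence read; EC50 (pM) from four-parameter fit.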

EC50 [pM] | SMILES
3 | CC[C@H](C)[C@H](NC(=O)[C@H](Cc1ccccc1)NC(=O)[C@H](CCC(=O)O)NC(=O)[C@H](CCCNC(=N)N)NC(=O)[C@H](C)NC(=O)[C@H](C)NC(=O)[C@H](CCCNC(=N)N)NC(=O)CNC(=O)[C@H](CCC(=O)O)NC(=O)[C@H](CC(C)C)NC(=O)[C@H](Cc1ccc(O)cc1)NC(=O)[C@H](CCCNC(=N)N)NC(=O)[C@H](CO)NC(=O)[C@@H](NC(=O)[C@H](CC(=O)O)NC(=O)[C@H](CO)NC(=O)[C@@H](NC(=O)[C@H](Cc1ccccc1)NC(=O)[C@@H](NC(=O)CNC(=O)[C@H](Cc1c[nH]cn1)NC(=O)C(C)(C)NC(=O)CCc1c[nH]cn1)[C@@H](C)O)[C@@H](C)O)C(C)C)C(=O)N[C@@H](C)C(=O)N[C@@H](Cc1c[nH]c2ccccc12)C(=O)N[C@@H](CC(C)C)C(=O)N[C@@H](CC(C)C)C(=O)N[C@@H](CCCCNC(=O)CC[C@H](NC(=O)CC[C@H](NC(=O)COCCOCCNC(=O)CC[C@H](NC(=O)CC[C@H](NC(=O)CCCCCCCCCCCCCCCCC(=O)O)C(=O)O)C(=O)O)C(=O)O)C(=O)O)C(=O)NCC(=O)N[C@@H](C)C(=O)NCC(=O)O [Example 35, N^ε34-[(4S)-4-carboxy-4-[[(4S)-4-carboxy-4-[[2-[2-[2-[[(4S)-4-carboxy-4-[[(4S)-4-carboxy-4-(17-carboxyheptadecanoylamino)butanoyl]amino]butanoyl]amino]ethoxy]ethoxy]acetyl]amino]butanoyl]amino]butanoyl]-[Imp7,Aib8,His9,Arg18,Arg23,Arg26,Leu33,Ala36]-GLP-1-(7-37)-peptide] (Desaminohistidyl-[Aib]HGTFTSDVSRYLEGRAAREFIAWLLK([γGlu-γGlu-AEEA-γGlu-γGlu-C18 diacid])GAG-OH)
8 | CC[C@H](C)[C@H](NC(=O)[C@H](Cc1ccccc1)NC(=O)[C@H](CCC(=O)O)NC(=O)[C@H](CCCNC(=N)N)NC(=O)[C@H](C)NC(=O)[C@H](C)NC(=O)[C@H](CCCNC(=N)N)NC(=O)CNC(=O)[C@H](CCC(=O)O)NC(=O)[C@H](CC(C)C)NC(=O)[C@H](Cc1ccc(O)cc1)NC(=O)[C@H](CCCCN)NC(=O)[C@H](CO)NC(=O)[C@@H](NC(=O)[C@H](CC(=O)O)NC(=O)[C@H](CO)NC(=O)[C@@H](NC(=O)[C@H](Cc1ccccc1)NC(=O)[C@@H](NC(=O)CNC(=O)[C@H](Cc1c[nH]cn1)NC(=O)[C@H](C)NC(=O)CCc1c[nH]cn1)[C@@H](C)O)[C@@H](C)O)C(C)C)C(=O)N[C@@H](C)C(=O)N[C@@H](Cc1c[nH]c2ccccc12)C(=O)N[C@@H](CC(C)C)C(=O)N[C@@H](CC(C)C)C(=O)N[C@@H](CCCCNC(=O)COCCOCCNC(=O)COCCOCCNC(=O)CC[C@H](NC(=O)CC[C@H](NC(=O)CC[C@H](NC(=O)CCCCCCCCCCCCCCCCC(=O)O)C(=O)O)C(=O)O)C(=O)O)C(=O)N[C@H](C(N)=O)[C@@H](C)O [Example 10, N^ε34-[2-[2-[2-[[2-[2-[2-[[(4S)-4-carboxy-4-[[(4S)-4-carboxy-4-[[(4S)-4-carboxy-4-(17-carboxyheptadecanoylamino)butanoyl]amino]butanoyl]amino]butanoyl]amino]ethoxy]ethoxy]acetyl]amino]ethoxy]ethoxy]acetyl]-[Imp7,His9,Lys18,Arg23,Arg26,Leu33,Thr35]-GLP-1-(7-35)-peptide amide] (Desaminohistidyl-AHGTFTSDVSKYLEGRAAREFIAWLLK([AEEA-AEEA-γGlu-γGlu-γGlu-C18 diacid])T-NH2)
7 | CC[C@H](C)[C@H](NC(=O)[C@H](Cc1ccccc1)NC(=O)[C@H](CCC(=O)O)NC(=O)[C@H](CCCNC(=N)N)NC(=O)[C@H](C)NC(=O)[C@H](C)NC(=O)[C@H](CCC(N)=O)NC(=O)[C@H](CCC(=O)O)NC(=O)[C@H](CCC(=O)O)NC(=O)[C@H](CC(C)C)NC(=O)[C@H](Cc1ccc(O)cc1)NC(=O)[C@H](CCCCN)NC(=O)[C@H](CO)NC(=O)[C@@H](NC(=O)[C@H](CC(=O)O)NC(=O)[C@H](CO)NC(=O)[C@@H](NC(=O)[C@H](Cc1ccccc1)NC(=O)[C@@H](NC(=O)CNC(=O)[C@H](Cc1c[nH]cn1)NC(=O)C(C)(C)NC(=O)CCc1c[nH]cn1)[C@@H](C)O)[C@@H](C)O)C(C)C)C(=O)N[C@@H](C)C(=O)N[C@@H](Cc1c[nH]c2ccccc12)C(=O)N[C@@H](CC(C)C)C(=O)N[C@@H](CC(C)C)C(=O)N[C@@H](CCCCNC(=O)CNC(=O)[C@H](CO)NC(=O)CC[C@H](NC(=O)CC[C@H](NC(=O)CCCCCCCCCCCCCCCCC(=O)O)C(=O)O)C(=O)O)C(=O)N[C@H](C(N)=O)[C@@H](C)O [Example 4, N^ε34-[2-[[(2S)-2-[[(4S)-4-carboxy-4-[[(4S)-4-carboxy-4-(17-carboxyheptadecanoylamino)butanoyl]amino]butanoyl]amino]-3-hydroxypropanoyl]amino]acetyl]-[Imp7,Aib8,His9,Lys18,Glu22,Arg26,Leu33,Thr35]-GLP-1-(7-35)-peptide amide] (Desaminohistidyl-[Aib]HGTFTSDVSKYLEEQAAREFIAWLLK([Gly-Ser-γGlu-γGlu-C18 diacid])T-NH2)
